Data set [1] concerns double-stranded calf thymus DNA. The experiment in a line: Thiazole orange displacement (DNA intercalation assay). Conditions: compared to fascaplysin (1). It is filed as binding. How it is done:
As the intercalation into DNA is considered an important component of the biological mechanism of action of fascaplysin, we evaluated and compared this activity for the synthesized 6-tert-butylfascaplysin (4) and unsubstituted fascaplysin (1). The drug–DNA complex formation was assessed by a fluorescent intercalator displacement assay based on the detachment of the thiazole orange (TO) intercalating agent from the DNA duplex by the tested compounds. The half-maximal concentrations for the effective displacement of TO from the DNA complex were calculated and are presented in Figure 3. In this experiment, the well-established DNA-binding compound, propidium iodide (PI), was used as a positive control.
A thiazole displacement assay was performed to measure the DNA intercalation activity. A mixture, containing 1 μM of double-stranded calf thymus DNA (recalculated as a concentration of base pairs) and 2 μM of thiazole orange (TO) staining agent dissolved in H2O, was used. The fascaplysins were added at concentrations of 0.39–25 μM. The DMSO concentration in the samples was not more than 0.02%. […] TO fluorescence was measured 7 min post-incubation at room temperature using a multimodal plate reader TECAN Spark (Männedorf, Switzerland) at the excitation λ = 480 nm. Fluorescence was recorded at λ = 530 nm with the bandwidth 10 nm. […]

Data set [2] has as its system PC-3 cells (human prostate cancer). The experiment in a line: MTT assay, PC-3. Format: cell-based. Conditions: PC-3, 48 h, mean ± SD. The source says: (§1) To investigate the effect of the tert-butyl group on anticancer activity and selectivity, we evaluated the cytotoxic activity of unsubstituted fascaplysin (1) and 6-tert-butylfascaplysin (4) in various cancer and non-cancer cell lines using the well-established MTT method (Table 4). The effects on the human prostate cancer cells PC3 and DU145 (hormone-independent cells), 22Rv1 (partially hormone-independent cells), and LNCaP (hormone-sensitive cells), as well as on the normal (non-cancerous) human cells PNT2, MRC-9, and HEK293, were investigated. The mean cytotoxicity of compound 4 towards either cancerous or non-cancerous cells decreased by ~2-fold compared to that of fascaplysin (1).
(§2) Cell lines PC-3, DU145, 22Rv1, and LNCaP (human prostate cancer), as well as PNT2 (human prostate non-cancer), were purchased from ATCC (Manassas, VA, USA). Human embryonic kidney cells HEK 293T and human fibroblasts MRC-9 cell lines were purchased from ECACC (Salisbury, UK). […] The cells were cultured at 37 °C as monolayers in a humidified atmosphere of 5% CO2. […]
(§3) The cytotoxic activity of the synthesized compounds was examined using an MTT assay, which was performed as previously reported. […] The absorbance of the DMSO solutions was measured using a TECAN Infinite F200PRO reader (Männedorf, Switzerland). IC50 were calculated with the GraphPad Prism v.9.1.1 (San Diego, CA, USA).
(In general: Formazan colour is commonly taken as a measure of viable cells.)

Data set [3] deals with 22Rv1 cells (human prostate cancer). As to the kind of experiment: MTT assay, 22Rv1. Format: cell-based. As to conditions: 22Rv1, 48 h, mean ± SD.
Text: as §1, §2, §3

In data set [4] the test system is DU145 cells (human prostate cancer). The experiment in a line: MTT assay, DU145. It is filed as cell-based. As to conditions: DU-145, DU145, 48 h, mean ± SD.
Text: as §1, §2, §3

The test system of data set [5] is LNCaP cells (human prostate cancer). The experiment in a line: MTT assay, LNCaP. Format: cell-based. Conditions: 48 h, mean ± SD.
Text: as §1, §2, §3

For data set [6], the system named is PNT2 cells (human prostate non-cancer). As to the kind of experiment: MTT assay, PNT2. Format: cell-based. As to conditions: PNT2, 48 h, mean ± SD.
Text: as §1, §2, §3

Data set [7] concerns MRC-9 cells (human fibroblasts). As to the kind of experiment: MTT assay, MRC-9. Conditions: MRC9, MRC-9, 48 h, mean ± SD. It is filed as cell-based.
Text: as §1, §2, §3

Data set [8] deals with HEK293 cells (human embryonic kidney). As to the kind of experiment: MTT assay, HEK293. Format: cell-based. As to conditions: HEK293, 48 h, mean ± SD.
Text: as §1, §2, §3

For data set [9], the system named is human prostate cancer cells PC-3, 22Rv1, DU145, LNCaP. As to the kind of experiment: MTT assay, cancer cells (average). As to conditions: mean of PC-3, 22Rv1, DU145, LNCaP. Format: cell-based.
Text: as §1, §2, §3

Data set [10] deals with normal (non-cancerous) human cells PNT2, MRC-9, HEK293. As to the kind of experiment: MTT assay, non-cancer cells (average). It is filed as cell-based. Conditions: mean of PNT2, MRC-9, HEK293.
Text: as §1, §2, §3

The subject of data set [11] is human prostate cancer cells and normal (non-cancerous) human cells. The experiment in a line: MTT assay, cancer and non-cancer cell lines together (selectivity, overall cytotoxicity). It is filed as cell-based.
Text: as §1
Cell lines PC-3, DU145, 22Rv1, and LNCaP (human prostate cancer), as well as PNT2 (human prostate non-cancer), were purchased from ATCC (Manassas, VA, USA). Human embryonic kidney cells HEK 293T and human fibroblasts MRC-9 cell lines were purchased from ECACC (Salisbury, UK). […] The cells were cultured at 37 °C as monolayers in a humidified atmosphere of 5% CO2. The culture mediums used for cultivation and experiments: for PNT2, LNCaP, 22Rv1, PC-3, and DU145 cells—RPMI Glutamax^TM-I medium (gibco® Life Technologies^TM, Paisley, UK), supplemented with 10% FBS (gibco® Life Technologies^TM) and 1% penicillin/streptomycin (Invitrogen, Waltham, MA, USA); for MRC-9 and HEK 293 cells—DMEM GlutamaxTM-I medium (gibco® Life Technologies^TM), supplemented with 10% FBS and 1% penicillin/streptomycin.
The cytotoxic activity of the synthesized compounds was examined using an MTT assay, which was performed as previously reported. In brief, the cells were seeded in 96-well plates (6000 cells/well) and incubated overnight. The medium was replaced with fresh medium containing the tested drugs, and the cells were incubated for an additional 48 h. […] The absorbance of the DMSO solutions was measured using a TECAN Infinite F200PRO reader (Männedorf, Switzerland). IC50 were calculated with the GraphPad Prism v.9.1.1 (San Diego, CA, USA).

Data set [12] is classed as physicochemical. How it is done: (§4) It was proposed based on the HRMS data, and its obtainment can be explained by the tendency towards oxidation of the fragment of p-hydroxyaminophenol of compound 26 (Scheme 6).
Method A. Freshly distilled BF3·OEt2 (0.02 mL, […]) in 2 mL of dry acetonitrile was slowly added to a stirred solution of 3 (5 mg, 0.01 mmol) and anhydrous NaI (2 mg, […]) in 5 mL of dry acetonitrile at 0 °C for 10–15 min. The mixture was stirred at 0 °C for 2 h and then for another 8 h at room temperature. The reaction was monitored by TLC. The formation of a rapidly oxidizing compound, presumably compound 27, with by-products was observed.
Method B. To 5 mg of 9-benzyloxyfascaplysin (0.01 mmol) in 5 mL of ethanol in a 10 mL flat-bottom flask, a catalytic amount of 10% palladium on carbon was added; this was sealed with a septum and left to stir under a hydrogen atmosphere on a magnetic stirrer at room temperature for 16 h. The reaction mixture changed color to green after 15 min. The progress of the reaction was monitored by TLC. The formation of a rapidly oxidizing compound, presumably compound 27, with by-products was observed.

Data set [13] is described as follows: Solubility observation of debenzylation product. As to conditions: product of benzyl removal from 3, presumably quinoid compound. Format: physicochemical.
Text: as §4

Each structure is given as a SMILES string.

As to `CC(C)(C)c1cc2c([nH]c3ccccc32)c2[n+]1-c1ccccc1C2=O` [Compound 4, 6-tert-butylfascaplysin], the “fold less effective at displacing TO from the fluorescent complex with DNA than 1” value in data set [1] worked out at 7 fold. Further, the half-inhibitory concentration (IC50) (usually the concentration that inhibits the measured activity by half) in data set [2] came to 1100 ± 76 nM; in data set [3], 580 ± 73 nM; in data set [4], 1730 ± 172 nM; in [5] it was 1330 ± 240 nM; in data set [6] it was 1820 ± 448 nM; in data set [7] it was 1370 ± 424 nM. Moreover, the IC50 was 348 ± 90 nM in [8]; 1190 nM in [9]; 1180 nM in data set [10]; at most 2000 nM in data set [11] (Homo sapiens, all tested cancer and non-cancer cell lines, read-out: IC50 in either cell line). The “Selectivity index (SI)” value in data set [11] (SI = mean [IC50 non-cancer cells]/mean [IC50 cancer cells]) was 0.99. Further, the “fold decrease of mean cytotoxicity compared to fascaplysin (1)” value in data set [11] (towards either cancerous or non-cancerous cells) is recorded as ~ 2 fold.

Consider `O=C1c2ccccc2-[n+]2ccc3c([nH]c4ccccc43)c21` [Compound 1, fascaplysin], for which the concentration for half-maximal inhibition (IC50) is 766 ± 126 nM in data set [2]; 242 nM in [3]; 798 ± 54 nM in [4]; 409 ± 20 nM in [5]; 457 ± 75 nM in [6]; 890 ± 46 nM in data set [7]. Besides, the IC50 was found to be 458 ± 190 nM in [8], 554 nM in data set [9] and 602 nM in data set [10].

Turning to `O=C1c2ccccc2-[n+]2ccc3c([nH]c4ccc(O)cc43)c21` [Compound 26, 9-hydroxyfascaplysin], in data set [12], the chemical stability entry is listed as “chemically highly unstable”.

For the molecule `O=c1ccc2nc3c(cc[n+]4c5ccccc5c(=O)c34)c-2c1` [Compound 27], in data set [13], the solubility result was “extremely poorly soluble”.

The values are drawn from publication PMC10455802, “A New Mild Method for Synthesis of Marine Alkaloid Fascaplysin and Its Therapeutically Promising Derivatives” (Marine Drugs, 2023).
